Source: PubChem BioAssay AID2060500 (Molecular Pharmacology Branch, DTP, NCI, 2025)
pIC50: −log10 of the molar value.

Tested on: 596521-263-R-J1-PDC complex spheroids, viability % of control
Experiment: Anticancer human tumor 596521-263-R-J1-PDC patient-derived soft tissue sarcoma cell line growth inhibition [GQUAD]
Settings: for pIC50: curve of first compound; for viability, T/C: stronger effect = lower value
Outline: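 Tumor cells were grown as complex spheroids with HUVEC endothelial cells and mesenchymal stem cells as stroma. G-quadruplex stabilizers were combined with targeted agents over half-log dilutions from near the clinical Cmax, or from 10 microM.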

[1] = second compound 0.0316 µM, first compound 0.0316 µM
[2] = second compound 0.0316 µM, first compound 0.316 µM
[3] = second compound 0.1 µM, first compound 0.0316 µM
[4] = second compound 0.1 µM, first compound 0.316 µM
[5] = second compound 0.316 µM, first compound 0.0316 µM
[6] = second compound 0.316 µM, first compound 0.316 µM
[7] = second compound 1 µM, first compound 0.0316 µM
[8] = second compound 1 µM, first compound 0.316 µM
[9] = second compound 3.16 µM, first compound 0.0316 µM
[10] = second compound 3.16 µM, first compound 0.316 µM
[11] = second compound 10 µM, first compound 0.0316 µM
[12] = second compound 10 µM, first compound 0.316 µM
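Also: spheroids exposed to drugs for 7 days before viability reading.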
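For viability, T/C in this document: 100% = DMSO vehicle control viability.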

With `Cc1cccc(N(C)C(=O)C2C(O)CCN2c2nc(C)cc(C(F)(F)F)c2C#N)c1` (centres undefined) + Cc1[nH]c2ccc(F)cc2c1-c1nc2c3cccnc3c3ncccc3c2[nH]1 the pIC50 (second compound 0.0316 µM) was < 5.00, the pIC50 (second compound 0.1 µM) was < 5.00 and the pIC50 (second compound 0.316 µM) was < 5.00. For the same molecule, the pIC50 (second compound 1 µM) was < 5.00, the pIC50 (second compound 3.16 µM) was < 5.00 and the pIC50 (second compound 10 µM) was < 5.00. It also gave a viability, T/C [1] of 106%, a viability, T/C (second compound 0.0316 µM, first compound 0.1 µM) of 93.3% and a viability, T/C [2] of 92.7%. The viability, T/C (second compound 0.0316 µM, first compound 1 µM) was 101%, the viability, T/C (second compound 0.0316 µM, first compound 3.16 µM) was 98.1% and the viability, T/C (second compound 0.0316 µM, first compound 10 µM) was 91.6%. For the same molecule, the viability, T/C [3] was 98.7%, the viability, T/C (second compound 0.1 µM, first compound 0.1 µM) was 99.1% and the viability, T/C [4] was 112%. The viability, T/C (second compound 0.1 µM, first compound 1 µM) was 85.9%, the viability, T/C (second compound 0.1 µM, first compound 3.16 µM) was 104% and the viability, T/C (second compound 0.1 µM, first compound 10 µM) was 95.1%. It also gave a viability, T/C [5] of 102%, a viability, T/C (second compound 0.316 µM, first compound 0.1 µM) of 100% and a viability, T/C [6] of 91.4%. For the same molecule, the viability, T/C (second compound 0.316 µM, first compound 1 µM) was 88.4%, the viability, T/C (second compound 0.316 µM, first compound 3.16 µM) was 110% and the viability, T/C (second compound 0.316 µM, first compound 10 µM) was 93.7%. For the same molecule, the viability, T/C [7] was 91.4%, the viability, T/C (second compound 1 µM, first compound 0.1 µM) was 89.4% and the viability, T/C [8] was 93.9%. The viability, T/C (second compound 1 µM, first compound 1 µM) was 99.4%, the viability, T/C (second compound 1 µM, first compound 3.16 µM) was 109% and the viability, T/C (second compound 1 µM, first compound 10 µM) was 91.1%. It also gave a viability, T/C [9] of 85.8%, a viability, T/C (second compound 3.16 µM, first compound 0.1 µM) of 92.5% and a viability, T/C [10] of 83.1%. It also gave a viability, T/C (second compound 3.16 µM, first compound 1 µM) of 88%, a viability, T/C (second compound 3.16 µM, first compound 3.16 µM) of 93.4% and a viability, T/C (second compound 3.16 µM, first compound 10 µM) of 83.1%. It also gave a viability, T/C [11] of 70.4%, a viability, T/C (second compound 10 µM, first compound 0.1 µM) of 73.5% and a viability, T/C [12] of 83.8%. It also gave a viability, T/C (second compound 10 µM, first compound 1 µM) of 75%, a viability, T/C (second compound 10 µM, first compound 3.16 µM) of 83.7% and a viability, T/C (second compound 10 µM, first compound 10 µM) of 91.4%.
For `Cn1ncnc1[C@H]1c2n[nH]c(=O)c3cc(F)cc(c23)N[C@@H]1c1ccc(F)cc1` + Cc1[nH]c2ccc(F)cc2c1-c1nc2c3cccnc3c3ncccc3c2[nH]1, the pIC50 (second compound 0.0316 µM) was < 6.50, the pIC50 (second compound 0.1 µM) was < 6.50 and the pIC50 (second compound 0.316 µM) was < 6.50. For the same molecule, the pIC50 (second compound 1 µM) was < 6.50, the pIC50 (second compound 3.16 µM) was < 6.50 and the pIC50 (second compound 10 µM) was < 6.50. It also gave a viability, T/C (second compound 0.0316 µM, first compound 0.000999 µM) of 89.4%, a viability, T/C (second compound 0.0316 µM, first compound 0.00316 µM) of 93.6% and a viability, T/C (second compound 0.0316 µM, first compound 0.00999 µM) of 90.2%. The viability, T/C [1] was 86.6%, the viability, T/C (second compound 0.0316 µM, first compound 0.0999 µM) was 95.2% and the viability, T/C [2] was 94.7%. The viability, T/C (second compound 0.1 µM, first compound 0.000999 µM) was 101%, the viability, T/C (second compound 0.1 µM, first compound 0.00316 µM) was 98.9% and the viability, T/C (second compound 0.1 µM, first compound 0.00999 µM) was 96.7%. For the same molecule, the viability, T/C [3] was 110%, the viability, T/C (second compound 0.1 µM, first compound 0.0999 µM) was 94.1% and the viability, T/C [4] was 78.1%. For the same molecule, the viability, T/C (second compound 0.316 µM, first compound 0.000999 µM) was 95.2%, the viability, T/C (second compound 0.316 µM, first compound 0.00316 µM) was 94.2% and the viability, T/C (second compound 0.316 µM, first compound 0.00999 µM) was 97.9%. The viability, T/C [5] was 89.5%, the viability, T/C (second compound 0.316 µM, first compound 0.0999 µM) was 80.4% and the viability, T/C [6] was 78.4%. It also gave a viability, T/C (second compound 1 µM, first compound 0.000999 µM) of 94.8%, a viability, T/C (second compound 1 µM, first compound 0.00316 µM) of 90.9% and a viability, T/C (second compound 1 µM, first compound 0.00999 µM) of 88.6%. The viability, T/C [7] was 83.5%, the viability, T/C (second compound 1 µM, first compound 0.0999 µM) was 85.9% and the viability, T/C [8] was 79.5%. It also gave a viability, T/C (second compound 3.16 µM, first compound 0.000999 µM) of 89.3%, a viability, T/C (second compound 3.16 µM, first compound 0.00316 µM) of 84.5% and a viability, T/C (second compound 3.16 µM, first compound 0.00999 µM) of 84.7%. For the same molecule, the viability, T/C [9] was 77.7%, the viability, T/C (second compound 3.16 µM, first compound 0.0999 µM) was 81.8% and the viability, T/C [10] was 72.6%. For the same molecule, the viability, T/C (second compound 10 µM, first compound 0.000999 µM) was 73.8%, the viability, T/C (second compound 10 µM, first compound 0.00316 µM) was 85.6% and the viability, T/C (second compound 10 µM, first compound 0.00999 µM) was 86.4%. The viability, T/C [11] was 76.5%, the viability, T/C (second compound 10 µM, first compound 0.0999 µM) was 72.5% and the viability, T/C [12] was 74.3%.
